Results on one molecule are retold here after patent publication US11576901B2, “Methods for treating viral infection” (HOWARD UNIVERSITY, priority 2016, dated 2023).

The structures appear in SMILES notation.

One data set relates to CEM T cells. Description: Percent of viable CEM T cells after infection. It is filed as cell-based. The conditions noted are these: CEM T cells after infection with HIV1 modified pNL4-3.Luc.R-E-virus; FIG. 3. The source says:
It is possible that the diminished expression of a protein within the genome of a virus containing an IRES sequence may have been brought about by the compound inhibiting the ability infected cells to survive. If the compound or salt diminishes viability or is otherwise toxic to the cell, then diminished expression of a protein within the genome of a virus containing an IRES sequence may be the result of infected cells dying before sufficient levels of the protein can be expressed. Determining if diminished expression of a protein is the result of cell death or other toxic effects of the compound or salt may be accomplished by assessing the viability of cells after administration of the compound or salt. Accordingly, in some embodiments of assessing the ability of a compound in accordance with General Formula 1, including derivatives in accordance with any of General Formulae 1-1 to 1-20, or pharmaceutically acceptable salts thereof, to inhibit the expression of at least a portion of a virus genome containing an IRES sequence, the compound or salt may be assessed for its ability to preserve viability of cells following administration. […]

The subject of the next data set is HSV-1. Description: Plaque forming assay, Hep-2 cell monolayers infected with HSV-1. The note with it: Hep-2 cells, 100 μM. It is filed as cell-based. The protocol: The ability of a virus to infect cells can be assessed using a plaque assay. In a plaque assay, an infected cell culture is grown under a nutrient gel. During culturing, the virus being study infects cells and replicates. However, the spread of virus to other cells is limited by the overlaying nutrient gel. As such, replicated virus released from one infected cell can only infect neighboring cells. The spread of virus amongst neighboring cells creates a plaque that can be visualized by staining. By counting the visible plaques, the amount of plaque forming units (pfu) per mL can be determined. If cells treated with a compound display a reduced amount of pfu compared to cells not treated with the compound after being infected with same amount of viral particles, then the reduction in pfu would have to be result of the ability of the […] virus. Thus, the ability of a compound in accordance with General Formula 1, including derivatives in accordance with any of General Formulae 1-1 to 1-20, to inhibit the ability of HSV-1 to proliferate can be assessed with a plaque assay.
Hep-2 cell monolayers were placed in well plates. The plated Hep-2 cells were treated with either DSMO as a control, 100 μM SD-29 or 100 μM SD29-12. A total of 6 well plates were prepared for each treatment condition. To each treated well plate an HSV-1 infecting solution comprising 1 mL of supernatants containing of the same amount of serially diluted HSV-1 particles were added. Accordingly, the treated well plates were infected with infection solutions containing the same amount of HSV-1 particles. After adsorption for 2 hours, the medium was removed and the treated cells were washed twice with serum-free DMEM and overlaid with phenol-free DMEM containing 5% FCS, 0.5% low-melting point agarose (GIBCO), and 1% penicillin-streptomycin. After either 0, 6, 12, 24 hours, the plaques present in each treated well plate were stained red and the number of plaques presented counted. Table 1 reports the mean plaque forming unit (pfu) determined for each treated well plate after averaging the number of pfu from the different plates receiving the same treatment.

As for `Nn1c(S)nnc1-c1ccc(F)cc1` [SD-29], the “viability of the infected cells” value with CEM T cells is “did not decrease viability”. Also, the “mean plaque forming unit (pfu)” value in the data set on HSV-1 (0 hpi) was found to be 0 pfu; in the data set with HSV-1 (6 hpi) it was 0 pfu; in the data set with HSV-1 (12 hpi), 100 pfu; in the data set on HSV-1 (24 hpi) it was 180000 pfu. Moreover, the “number of pfu compared to DMSO control (in words)” value with HSV-1 (Table 1 and FIG. 7) was “reduced number of pfu compared to control”.
